Experimental findings from patent publication US20110294799A1, “Organic Compounds” (NOVARTIS AG, priority 2007, published 2011) are described below.

Assay [1] addresses T1, GABA-A alpha2 receptor (alpha 2 subunit together with a beta and a gamma subunit) (Homo sapiens, UniProt P18507+P47869).
T1 construct: expressed in transfected cells
T1 sequence (P47869 29-451): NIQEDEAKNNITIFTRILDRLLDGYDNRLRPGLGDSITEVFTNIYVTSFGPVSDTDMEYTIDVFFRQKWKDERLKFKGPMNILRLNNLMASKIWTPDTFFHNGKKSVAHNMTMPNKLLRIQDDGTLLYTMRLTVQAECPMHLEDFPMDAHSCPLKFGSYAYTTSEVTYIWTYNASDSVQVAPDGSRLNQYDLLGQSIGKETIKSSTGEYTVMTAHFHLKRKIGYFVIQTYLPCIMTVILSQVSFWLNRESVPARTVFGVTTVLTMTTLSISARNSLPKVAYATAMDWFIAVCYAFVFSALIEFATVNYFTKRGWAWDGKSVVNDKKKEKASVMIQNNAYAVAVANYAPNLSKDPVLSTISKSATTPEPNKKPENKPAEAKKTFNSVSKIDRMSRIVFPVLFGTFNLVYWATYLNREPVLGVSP
T1 sequence (P47870 25-512 partner limits assumed): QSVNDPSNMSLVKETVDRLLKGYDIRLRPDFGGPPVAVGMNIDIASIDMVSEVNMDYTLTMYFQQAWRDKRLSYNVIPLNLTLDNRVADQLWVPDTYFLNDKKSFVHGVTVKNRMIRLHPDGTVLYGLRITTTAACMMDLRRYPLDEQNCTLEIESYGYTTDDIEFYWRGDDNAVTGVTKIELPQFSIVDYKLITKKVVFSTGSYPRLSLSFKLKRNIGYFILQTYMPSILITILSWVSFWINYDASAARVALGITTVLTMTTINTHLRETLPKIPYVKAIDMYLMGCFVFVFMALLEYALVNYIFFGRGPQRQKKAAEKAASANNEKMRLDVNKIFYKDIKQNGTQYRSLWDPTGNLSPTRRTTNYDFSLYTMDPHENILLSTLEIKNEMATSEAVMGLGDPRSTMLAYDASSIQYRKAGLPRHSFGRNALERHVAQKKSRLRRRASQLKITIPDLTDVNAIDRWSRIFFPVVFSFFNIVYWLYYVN
T1 sequence (P18507 40-467 limits assumed): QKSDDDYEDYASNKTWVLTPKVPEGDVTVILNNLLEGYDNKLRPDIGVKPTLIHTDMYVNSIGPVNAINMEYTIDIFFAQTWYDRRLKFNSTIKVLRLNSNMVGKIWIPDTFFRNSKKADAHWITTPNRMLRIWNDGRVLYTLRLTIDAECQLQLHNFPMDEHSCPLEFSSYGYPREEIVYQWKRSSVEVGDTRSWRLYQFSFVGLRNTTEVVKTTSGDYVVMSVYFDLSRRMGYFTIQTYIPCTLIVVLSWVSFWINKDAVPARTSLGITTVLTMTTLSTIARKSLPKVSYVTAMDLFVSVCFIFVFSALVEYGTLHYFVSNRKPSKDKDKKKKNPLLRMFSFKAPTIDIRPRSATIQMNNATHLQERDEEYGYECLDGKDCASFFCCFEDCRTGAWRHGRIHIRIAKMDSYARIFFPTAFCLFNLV
In words: GABA-A receptor modulation, voltage-sensitive dye fluorescence in transfected eukaryotic cell line (alpha2). It is filed as cell-based. The note with it: compounds at 3 μM, sub-maximal concentration of GABA (EC20); for activation at 3 µM: read-out: alpha2 % mod (percentage of increase of the fluorescent signal compared to signal without the agent). An excerpt: (§1) GABA-A receptor modulators show in functional assays a positive modulation of GABA-induced signals. This modulation can be determined in vitro, e.g., at recombinant GABA-A receptors expressed in a mammalian cell line, e.g. by measurement of GABA-A receptor induced changes of the trans-membrane voltage, when using a voltage-sensitive dye and a fluorescence detection system (Adkins, C. E., Pillai, G. V., Kerby, J., Bonnert, T. P., Haldon, C., Mckernan, R. M., Gonzalez, J. E., Oades, K., Whiting, P. J. & Simpson, P. B. [2001]. alpha4beta3delta GABA-A receptors characterized by fluorescence resonance energy transfer-derived measurements of membrane potential. J. Biol. Chem., 276, 38934-38939). In this assay, a modulator compound is pre-applied at different concentrations ranging from 0.1 nM to 10 μM to cells expressing GABA-A receptors and loaded with the voltage-sensitive dye, before, or at the same time as, a sub-maximal concentration of GABA (in the range of from 0.1 to 10 μM) is applied to the cells. The fluorescent signal is correlated with the degree of GABA-A receptor channel opening. This allows the quantification of effects induced by the modulator in a functional manner. By expression of different GABA-A receptor subunit combinations, the differential efficacy of a modulator at different GABA-A receptor variants can be tested. Other functional assays include the electrophysiological recording of Xenopus oocytes or mammalian cells expressing respective receptor variants. In addition, ion flux detectors can be used to functionally study GABA-A receptors in heterologous expression systems. The affinity of a compound to the GABA-A receptor can be measured in radioligand binding experiments using reference ligands containing a radioactive element, e.g., tritiated flumazenil, and intact cells or membrane preparations of cells expressing GABA-A receptors.
(§2) Activity and selectivity of a GABA-A receptor modulator according to the invention can, e.g., be determined in vitro as follows: A transfected eukaryotic cell line expressing the alpha1, alpha2 or alpha3 subunit of the GABA-A receptor together with a beta and a gamma subunit of the GABA-A receptor is incubated with a voltage-sensitive dye, and the effects of an agonist (typically GABA) or modulator addition are recorded in a fluorimetric plate reader. The opening of the GABA-A receptor channel and the subsequent flux of anions through it changes the trans-membrane voltage of the transfected cells, leading to a change in the fluorescent signal of the voltage-sensitive dye. In the presence of the agent of the invention, a sub-maximal concentration of GABA (e.g. an EC20 or an EC50) added to transfected cells expressing the alpha1, alpha2 or alpha3 subunit of the GABA-A receptor will elicit an at least 50%, preferably an at least 80%, ideally an at least 100%, increase, of the fluorescent signal, compared to the fluorescent signal obtained without the agent of the invention. In this assay, agents of the invention modulate the GABA-induced response at concentration from about 0.1 to about 10′000 nM.

Assay [2] has as its target T2, GABA-A alpha1 receptor (alpha 1 subunit together with a beta and a gamma subunit) (Homo sapiens, UniProt P14867+P18507).
T2 construct: expressed in transfected cells
T2 sequence (P14867 28-456): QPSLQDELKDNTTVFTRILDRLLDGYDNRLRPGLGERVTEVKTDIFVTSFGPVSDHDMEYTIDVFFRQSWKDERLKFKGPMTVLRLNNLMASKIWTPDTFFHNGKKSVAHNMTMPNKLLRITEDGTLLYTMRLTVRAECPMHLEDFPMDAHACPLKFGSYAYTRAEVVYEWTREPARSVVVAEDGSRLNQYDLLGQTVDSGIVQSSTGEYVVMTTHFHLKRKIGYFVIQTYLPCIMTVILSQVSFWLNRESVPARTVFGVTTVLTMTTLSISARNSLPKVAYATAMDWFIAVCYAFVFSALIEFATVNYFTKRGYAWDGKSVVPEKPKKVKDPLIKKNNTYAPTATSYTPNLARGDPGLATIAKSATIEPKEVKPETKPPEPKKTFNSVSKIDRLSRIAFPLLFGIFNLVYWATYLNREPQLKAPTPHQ
T2 sequence (P47870 25-512 partner limits assumed): T1 sequence (P47870 25-512 partner limits assumed)
T2 sequence (P18507 40-467 limits assumed): T1 sequence (P18507 40-467 limits assumed)
In words: GABA-A receptor modulation, voltage-sensitive dye fluorescence in transfected eukaryotic cell line (alpha1). Type of assay: cell-based. The note with it: compounds at 3 μM, sub-maximal concentration of GABA (EC20); for activation at 3 µM: read-out: alpha1 % mod (percentage of increase of the fluorescent signal compared to signal without the agent).
Source text: as §1, §2

On to `COc1ccc(-n2nc3c(cnc4ccccc43)c2OCc2ccc(C(F)(F)F)cc2)cc1` [Example 1, 2-(4-Methoxy-phenyl)-3-(4-trifluoromethyl-benzyloxy)-2H-pyrazolo[4,3-c]quinoline], for which the results for the activation at 3 µM in assay [1] and in assay [2] were 36% and 5%, respectively.

In the case of `CCCCOc1c2cnc3ccccc3c2nn1-c1ccccc1` [Example 4, 3-butoxy-2-phenyl-2H-pyrazolo[4,3-c]quinoline], the activation at 3 µM came to 126% in assay [1] and 137% in assay [2].

In the case of `COc1ccc(-n2nc3c(cnc4ccccc43)c2OCCOc2ccccc2)cc1` [Example 13, 2-(4-methoxyphenyl)-3-(2-phenoxyethoxy)-2H-pyrazolo[4,3-c]quinoline], the activation at 3 µM was 52% in assay [1] and -29% in assay [2].

For the compound `COc1ccc(-n2nc3c(cnc4ccccc43)c2OCCc2ccc(Cl)cc2)cc1` [Example 14, 3-[2-(4-chlorophenyl)ethoxy]-2-(4-methoxyphenyl)-2H-pyrazolo[4,3-c]quinoline], the activation at 3 µM was found to be 34% in assay [1] and 3% in assay [2].

In the case of `COc1ccc(-n2nc3c(cnc4ccccc43)c2OCCc2ccccc2Cl)cc1` [Example 15, 3-[2-(2-chlorophenyl)ethoxy]-2-(4-methoxyphenyl)-2H-pyrazolo[4,3-c]quinoline], the results for the activation at 3 µM in assay [1] and in assay [2] were 197% and 23%, respectively.

Turning to `Fc1ccccc1-n1nc2c(cnc3ccccc32)c1OCCc1ccccc1Cl` [Example 16, 3-[2-(2-chlorophenyl)ethoxy]-2-(2-fluorophenyl)-2H-pyrazolo[4,3-c]quinoline], the results for the activation at 3 µM in assay [1] and in assay [2] were 101% and 18%, respectively.

Turning to `COc1ccc(-n2nc3c(cnc4ccccc43)c2OCCCN2CCN(C)C2=O)cc1` [Example 17, 1-(3-{[2-(4-methoxyphenyl)-2H-pyrazolo[4,3-c]quinolin-3-yl]oxy}propyl)-3-methylimidazolidin-2-one], the activation at 3 µM in assay [1] worked out at 577%; in assay [2], 262%.

`COc1ccc(-n2nc3c(cnc4ccccc43)c2OCCN2CCOCC2)cc1` [Example 18, 2-(4-methoxyphenyl)-3-(2-morpholin-4-ylethoxy)-2H-pyrazolo[4,3-c]quinoline]: the activation at 3 µM in assay [1] is 196%; in assay [2], 67%.

Turning to `Fc1ccccc1-n1nc2c(cnc3ccccc32)c1OCCN1CCOCC1` [Example 19, 2-(2-fluorophenyl)-3-(2-morpholin-4-ylethoxy)-2H-pyrazolo[4,3-c]quinoline], the results for the activation at 3 µM in assay [1] and in assay [2] were 72% and 0%, respectively.

Regarding `Fc1ccccc1COc1c2cnc3ccccc3c2nn1-c1ccccc1` [Example 27, 3-[(2-fluorobenzyl)oxy]-2-phenyl-2H-pyrazolo[4,3-c]quinoline], the results for the activation at 3 µM in assay [1] and in assay [2] were 165% and 62%, respectively.

As to `Fc1ccc(-n2nc3c(cnc4ccccc43)c2OCc2ccccc2F)cc1` [Example 28, 3-[(2-fluorobenzyl)oxy]-2-(4-fluorophenyl)-2H-pyrazolo[4,3-c]quinoline], the activation at 3 µM in assay [1] was 146%; in assay [2] it was 34%.

As for `Cc1cccc2c1ncc1c(OCc3ccc(Cl)cc3)n(-c3ccccc3)nc12` [Example 31, 3-[(4-chlorobenzyl)oxy]-6-methyl-2-phenyl-2H-pyrazolo[4,3-c]quinoline], the activation at 3 µM in assay [1] amounted to 81%; in assay [2] it was 51%.

On to `N#Cc1ccc2ncc3c(OCc4ccc(Cl)cc4)n(-c4ccccc4)nc3c2c1` [Example 32, 3-[(4-chlorobenzyl)oxy]-2-phenyl-2H-pyrazolo[4,3-c]quinoline-8-carbonitrile], for which the activation at 3 µM in assay [1] was determined as 88%; in assay [2] it was 34%.

Turning to `Fc1cccc2c1ncc1c(OCc3ccc(Cl)cc3)n(-c3ccccc3)nc12` [Example 33, 3-[(4-chlorobenzyl)oxy]-6-fluoro-2-phenyl-2H-pyrazolo[4,3-c]quinoline], the activation at 3 µM in assay [1] was determined as 73%; in assay [2], 39%.

`Clc1ccccc1COc1c2cnc3ccccc3c2nn1-c1ccccn1` [Example 34, 3-[(2-chlorobenzypoxy]-2-pyridin-2-y1-2H-pyrazolo[4,3-c]quinoline]: the “alpha2 % mod (percentage of increase of the fluorescent signal compared to signal without the agent)” value in assay [1] was 57 % mod. Moreover, the “alpha1 % mod (percentage of increase of the fluorescent signal compared to signal without the agent)” value in assay [2] worked out at 13 % mod.

Consider `Cc1ccccc1-n1nc2c(cnc3ccccc32)c1OCc1ccccc1Br` [Example 36, 3-[(2-bromobenzyl)oxy]-2-(2-methylphenyl)-2H-pyrazolo[4,3-c]quinoline], for which the figures for the activation at 3 µM in assay [1] and in assay [2] were 315% and 223%, respectively.

For `Clc1ccccc1-n1nc2c(cnc3ccccc32)c1OCc1ccccc1Br` [Example 41, 3-[(2-bromobenzyl)oxy]-2-(2-chlorophenyl)-2H-pyrazolo[4,3-c]quinoline], the figures for the activation at 3 µM in assay [1] and in assay [2] were 386% and 289%, respectively.
